Laboratory results reported in paper PMC7280082 (Acta Pharmaceutica Sinica. B, 2019).

Assays:
WT HIV-1 (IIIB) = assay: microbe, parasite or virus in culture; type: cell-based
HIV-2 strain (ROD) = assay: Anti-HIV-2; type: cell-based
[1] = tested on: HIV-1 L100I mutant strain; assay: microbe, parasite or virus in culture; type: cell-based
[2] = tested on: HIV-1 K103N mutant strain; assay: microbe, parasite or virus in culture; type: cell-based
[3] = tested on: HIV-1 Y181C mutant strain; assay: microbe, parasite or virus in culture; type: cell-based
[4] = tested on: HIV-1 Y188L mutant strain; assay: microbe, parasite or virus in culture; type: cell-based
[5] = tested on: HIV-1 E138K mutant strain; assay: microbe, parasite or virus in culture; type: cell-based
[6] = tested on: HIV-1 F227L + V106A double-mutant strain; assay: microbe, parasite or virus in culture; type: cell-based
[7] = tested on: HIV-1 RES056 (K103N + Y181C) double-mutant strain; assay: microbe, parasite or virus in culture; type: cell-based
WT HIV-1 RT = WT HIV-1 RT (Human immunodeficiency virus type 1 group M subtype B, UniProt P03366); assay: Recombinant HIV-1 RT inhibitory assay; type: biochemical
Kunming mice = assay: Acute toxicity experiment in Kunming mice; type: in vivo; settings: single oral dose of 2000 mg/kg
[8] = In vivo pharmacokinetics in Wistar rat; settings: plasma
[9] = Cytotoxicity in mock-infected MT-4 cell cultures, MTT method; settings: human, mock-infected MT-4 cells
[10] = ratio of EC50 (resistant viral strain)/EC50 (wild-type viral strain)

## Cc1cc(-c2ccc(C#N)cc2)cc(C)c1Oc1nc(NC2CCN(Cc3ccc(C(N)=O)cc3)CC2)nc2ccsc12 [Compound 26, 4-((4-((4-((4′-Cyano-3,5-dimethyl-[1,1′-biphenyl]-4-yl)oxy)thieno[3,2-d]pyrimidin-2-yl)amino)piperidin-1-yl)methyl)benzamide]
WT HIV-1 (IIIB); Human immunodeficiency virus 1, IIIB, MT4, read-out: EC50 IIIB
  EC50: 9.93 ± 1.27 nM
WT HIV-1 (IIIB); ratio of CC50/EC50
  SI IIIB: 552
HIV-2 strain (ROD); Human immunodeficiency virus 2, MT4, read-out: EC50 ROD
  EC50: > 5490 nM
HIV-2 strain (ROD); ratio of CC50/EC50
  SI ROD: <1
[1]; CC50/EC50
  SI L100I: 521
[1]; Human immunodeficiency virus 1, MT4, read-out: EC50 L100I
  EC50: 10.5 ± 4.56 nM
[1]; [10]
  RF L100I: 1.1
[2]; CC50/EC50
  SI K103N: 910
[2]; Human immunodeficiency virus 1, MT4, read-out: EC50 K103N
  EC50: 6.02 ± 0.84 nM
[3]; CC50/EC50
  SI Y181C: 290
[3]; Human immunodeficiency virus 1, MT4, read-out: EC50 Y181C
  EC50: 18.9 ± 2.28 nM
[3]; [10]
  RF Y181C: 1.9
[4]; CC50/EC50
  SI Y188L: 229
[4]; Human immunodeficiency virus 1, MT4, read-out: EC50 Y188L
  EC50: 23.9 ± 2.4 nM
[4]; [10]
  RF Y188L: 2.4
[5]; CC50/EC50
  SI E138K: 236
[5]; Human immunodeficiency virus 1, MT4, read-out: EC50 E138K
  EC50: 23.2 ± 8.64 nM
[5]; [10]
  RF E138K: 2.3
[6]; CC50/EC50
  SI F227L + V106A: 56
[6]; Human immunodeficiency virus 1, MT4, read-out: EC50 F227L + V106A
  EC50: 97.2 ± 25.3 nM
[6]; [10]
  RF F227L + V106A: 9.8
[7]; CC50/EC50
  SI RES056: 44
[7]; Human immunodeficiency virus 1, MT4, read-out: EC50 RES056
  EC50: 125 ± 39.3 nM
[7]; [10]
  RF RES056: 12.6
WT HIV-1 RT
  IC50: 182 ± 16 nM
Kunming mice
  mortality or poisoning symptom: no mortality or poisoning symptom
[8]; iv, 2 mg/kg
  AUC(0-inf): 1340 ± 53.9 ng·h/mL
  AUC(0-t): 1290 ± 62.7 ng·h/mL
  Cmax: 941 ± 181 ng/mL
  clearance: 25 ± 1.04 mL/min/kg
  half-life: 1.71 ± 0.24 h
[8]; oral, 20 mg/kg
  bioavailability: 33.8%
[8]; po, 20 mg/kg
  AUC(0-inf): 4760 ± 1350 ng·h/mL
  AUC(0-t): 4360 ± 1570 ng·h/mL
  Cmax: 762 ± 296 ng/mL
  Tmax: 2 ± 0.32 h
  half-life: 2.68 ± 0.2 h
[9]
  CC50 at 5 days: 5480 ± 2120 nM
